Here are results for 22 compounds from ChEMBL document CHEMBL5352385, “Marine natural products and their synthetic analogs as promising antibiofilm agents for antibiotics discovery and development” (Eur J Med Chem, 2022).

Experiment [1] has as its system Candida albicans. Description: Antibiofilm activity against Candida albicans assessed as reduction in biofilm formation at 100 ug/ml measured after 48 hrs by crystal violet staining based analysis relative to control. The format is functional. Also noted: scale not given: the % may be the effect or the level left. The conditions noted are these: dose 100 µg/ml.
In experiment [2] the test system is Staphylococcus epidermidis. Description: Antibiofilm activity against […] incubated for 24 hrs. The format is functional.
The subject of experiment [3] is Staphylococcus aureus. The experiment in a line: Antibiofilm activity against methicillin-sensitive Staphylococcus aureus ATCC 35556 incubated for 24 hrs. The format is functional.
Experiment [4] has as its system Staphylococcus aureus. The experiment in a line: Antibiofilm activity against methicillin-resistant Staphylococcus aureus ATCC 43866 incubated for 24 hrs. Format: functional.
Experiment [5] has as its system Escherichia coli. Description: Antibiofilm activity against Escherichia coli at 50.9 ug/ml relative to control. The format is functional. The settings on record: dose 50.9 µg/ml.
Experiment [6] has as its system Candida albicans. The experiment in a line: Antibiofilm activity against Candida albicans assessed as reduction in biofilm formation at 50 ug/ml measured after 48 hrs by crystal violet staining based analysis relative to control. Format: functional. The arrangement: scale not given: the % may be the effect or the level left. The settings on record: dose 50 µg/ml.

The next experiment has as its system Vibrio anguillarum. Description: Antibiofilm activity against Vibrio anguillarum at 300 ug/ml relative to control. Format: functional. The settings on record: dose 300 µg/ml.
In experiment [7] the test system is Bacillus subtilis. Description: Antibiofilm activity against Bacillus subtilis at 300 ug/ml relative to control. The conditions noted are these: dose 300 µg/ml. The format is functional.
The subject of experiment [8] is Pseudomonas aeruginosa. Description: Antibiofilm activity against Pseudomonas aeruginosa at 300 ug/ml relative to control. The format is functional. The conditions noted are these: dose 300 µg/ml.
For another experiment, the system named is Bacillus sp. The experiment in a line: Antibiofilm activity against Bacillus sp. 176 at 300 ug/ml relative to control. Format: functional. The settings on record: dose 300 µg/ml.
The subject of experiment [9] is Staphylococcus aureus. The experiment in a line: Antibiofilm activity against Staphylococcus aureus ATCC 6538 at 12.5 ug/ml relative to control. Format: functional. The conditions noted are these: dose 12.5 µg/ml.
Experiment [10] concerns Staphylococcus aureus. Description: Antibiofilm activity against Staphylococcus aureus ATCC 29213 at 0.5 to 4 ug/ml relative to control. The conditions noted are these: dose 0.5-4 µg/ml; at 0.5 to 4 µg/mL. The format is functional.
The test system of experiment [11] is Pseudomonas aeruginosa. The experiment in a line: Antibiofilm activity against Pseudomonas aeruginosa PA01 assessed as inhibition of biofilm formation at 800 ug/ml relative to control. Format: functional. The settings on record: dose 800 µg/ml. Also noted: scale not given: the % may be the effect or the level left.
The subject of experiment [12] is Staphylococcus aureus. Description: Antibiofilm activity against methicillin-resistant Staphylococcus aureus CH 10850 at 33.2 ug/ml relative to control. The format is functional. The settings on record: dose 33.2 µg/ml.
For experiment [13], the system named is Staphylococcus aureus. The experiment in a line: Antibiofilm activity against methicillin-resistant Staphylococcus aureus 33591 assessed as reduction in biofilm formation at 50 ug/ml measured after 24 hrs by crystal violet staining based analysis relative to control. The conditions noted are these: dose 50 µg/ml. Also noted: scale not given: the % may be the effect or the level left. The format is functional.

A further experiment relates to Streptococcus mutans. Description: Antibiofilm activity against Streptococcus mutans at 5 ug/ml relative to control. The format is functional. The conditions noted are these: dose 5 µg/ml.
For experiment [14], the system named is Staphylococcus aureus. The experiment in a line: Antibiofilm activity against Staphylococcus aureus by crystal violet staining based analysis. The format is functional.
Experiment [15] has as its system Staphylococcus aureus. Description: Antibiofilm activity against Staphylococcus aureus incubated for 3 hrs by XTT method. The format is functional. (In general: Tetrazolium dyes change colour on reduction, which living cells bring about.)
In experiment [16] the test system is Staphylococcus aureus. Description: Antibiofilm activity against Staphylococcus aureus ATCC 25923 at 8 to 16 ug/ml incubated for 24 hrs by crystal violet staining based analysis relative to control. Format: functional. The conditions noted are these: dose 8-16 µg/ml, at 8 to 16 µg/mL.
The subject of the next experiment is Enterococcus faecalis. Description: Antibiofilm activity against Enterococcus faecalis W1 at 8 to 16 ug/ml incubated for 24 hrs by crystal violet staining based analysis relative to control. The format is functional. The conditions noted are these: dose 8-16 µg/ml, at 8 to 16 µg/mL.
The test system of experiment [17] is Bacillus subtilis. Description: Antibiofilm activity against Bacillus subtilis ATCC 6633 at 8 to 16 ug/ml incubated for 24 hrs by crystal violet staining based analysis relative to control. The conditions noted are these: dose 8-16 µg/ml, at 8 to 16 µg/mL. The format is functional.
Experiment [18] has as its system Staphylococcus aureus. The experiment in a line: Antibiofilm activity against Staphylococcus aureus B1 at 8 to 16 ug/ml incubated for 24 hrs by crystal violet staining based analysis relative to control. Format: functional. The settings on record: dose 8-16 µg/ml, at 8 to 16 µg/mL.
Experiment [19] deals with Pseudomonas aeruginosa. Description: Antibiofilm activity against Pseudomonas aeruginosa PA01 at 128 ug/ml relative to control. The format is functional. The settings on record: dose 128 µg/ml.
The test system of experiment [20] is Staphylococcus epidermidis. The experiment in a line: Antibiofilm activity against Staphylococcus epidermidis. Format: functional.
The subject of experiment [21] is Candida albicans. Description: Antibiofilm activity against Candida albicans assessed as reduction in biofilm formation at >200 ug/ml measured after 48 hrs by crystal violet staining based analysis relative to control. Format: functional. The arrangement: scale not given: the % may be the effect or the level left. The settings on record: dose > 200 µg/ml.
The test system of experiment [22] is Acinetobacter baumannii. Description: Antibiofilm activity against Acinetobacter baumannii ATCC 19606 assessed as reduction in biofilm formation incubated for 24 hrs by crystal violet staining based analysis. Format: functional.
In experiment [23] the test system is Acinetobacter baumannii. The experiment in a line: Antibiofilm activity against Acinetobacter baumannii ATCC […] assessed as reduction in biofilm formation incubated for 24 hrs by crystal violet staining based analysis. Format: functional.
Experiment [24] in a line: Inhibition of quorum-sensing system in Staphylococcus epidermidis assessed as inhibition of AI-2 at 60 ug/ml by bioluminescence assay relative to control. The settings on record: dose 60.0 µg/ml.
The test system of experiment [25] is Staphylococcus aureus. Description: Antibiofilm activity against Staphylococcus aureus ATCC 6538 at 6.25 ug/ml relative to control. Format: functional. The conditions noted are these: dose 6.25 µg/ml.
For experiment [26], the system named is Candida albicans. The experiment in a line: Antibiofilm activity against Candida albicans assessed as inhibition of biofilm formation at 400 ug/ml by microbroth dilution assay relative to control. Format: functional. Also noted: scale not given: the % may be the effect or the level left. The conditions noted are these: dose 400 µg/ml.
Experiment [27] has as its system Escherichia coli. The experiment in a line: Antibiofilm activity against Escherichia coli at 31.3 ug/ml relative to control. The conditions noted are these: dose 31.3 µg/ml. The format is functional.

One may read the inhibition as the change of the read-out against control, counted positive when it falls.

Structures are written as SMILES. *1 amine or outer side, *2 acyl side, *3 side chain or, on linkers, in order; H or OH if unused. Where a SMILES comes first, the peptide text is derived from it. [ ]: non-standard residue; d: D form. ξ: configuration not given here. ξGly(tetradecyl) = CCCCCCCCCCCCCCC(N)C(=O)O; X1 = CCCCCCCCCCCCCC(N[*:1])C(=O)[*:2]

For the compound `C/C=C1\C(=O)/C(=C(/O)C(C)CCCCCC)C(=O)N1C` (configuration not stated) [PENICILLENOL B2], the Activity with Candida albicans [1] was 80%.
Take `Cn1c(-c2nnc(-c3ccc(Cl)cc3Cl)o2)cc(Br)c1Br`: the values for the MBIC (in experiment [2]; with Staphylococcus aureus [3]; with Staphylococcus aureus [4]) were 3.125 µg/mL, 0.39 µg/mL and 0.78 µg/mL, respectively.
Compound `NC1=N[C@]23CCCN2C(=O)c2[nH]c(Br)c(Br)c2[C@@H]3N1` showed an Activity in the experiment on Escherichia coli [5] of 50%.
On to `CCCCCCC(C)/C(O)=C1\C(=O)[C@@H](C(C)O)N(C)C1=O` (some centres not stated), for which, in the experiment with Candida albicans [6], the Activity is 80%.
Take `CCCCCCCCCCCCCC1NC(=O)C(C(C)CC)NC(=O)C(CC(C)C)NC(=O)C(CC(=O)OC)NC(=O)C(CC(C)C)NC(=O)C(CC(C)C)NC(=O)C(CC(C)C)NC(=O)C(CCC(=O)OC)NC1=O` (configuration not stated) (cyclo([X1]E(OMe)LLLD(OMe)LI); configuration not given here): the Activity in the experiment with Vibrio anguillarum, in the experiment with Bacillus subtilis [7], in the experiment with Pseudomonas aeruginosa [8] and in the experiment on Bacillus sp. was above 50% in each case.
Regarding `CC1=C2C(=CO[C@H](C)[C@H]2C)C(O)=C(C(=O)O)C1=O` [CITRININ], the Activity with Staphylococcus aureus [9] is given as above 50%.
`COC(=O)CCN(CCCCCCCCCCCOCCc1ccc[n+](Cc2ccccc2)c1)C(=O)OC(C)(C)C.[Cl-]` returned an Activity in the experiment with Staphylococcus aureus [10] of 25%.
`CCCCCCCCCCCCCCC1NC(=O)C(C(C)CC)NC(=O)C(CC(C)C)NC(=O)C(CC(=O)OC)NC(=O)C(CC(C)C)NC(=O)C(CC(C)C)NC(=O)C(CC(C)C)NC(=O)C(CCC(=O)OC)NC1=O` (configuration not stated) (cyclo([ξGly(tetradecyl)]E(OMe)LLLD(OMe)LI); configuration not given here): the Activity in the experiment on Vibrio anguillarum, in the experiment with Bacillus subtilis [7], in the experiment on Pseudomonas aeruginosa [8] and in the experiment with Bacillus sp. was above 50% in each case.
Turning to `CC(=O)NCCc1ccc(O)cc1`, the Activity in the experiment with Pseudomonas aeruginosa [11] turned out to be 28%.
Compound `CC(=O)O[C@@H]1O[C@H]2OC(=O)C3=C(C)[C@@](C)([C@@]4(C)CCCC(C)(C)C4)CC[C@@H]1[C@H]32` yielded an Activity in the experiment on Staphylococcus aureus [12] of 50%.
In the case of `COc1cc(-c2ccccn2)nc(CO)c1SC`, the Activity in the experiment on Staphylococcus aureus [13] is on record as above 90%.
As to `Cc1cc(O)c2c(c1)C(=O)c1cc(O)cc(O)c1C2=O` [EMODIN], the Activity in the experiment with Streptococcus mutans is 90%; in the experiment with Staphylococcus aureus [9] it was above 50%.
As to `CCCCOC(=O)[C@]1(Cc2ccccc2)OC(=O)C(O)=C1c1ccccc1`, the results for the MBIC in the experiment with Staphylococcus aureus [14] and in the experiment on Staphylococcus aureus [15] were 6.1 µg/mL and 97.7 µg/mL, respectively.
Turning to `C=C1CC[C@H]2[C@@](C)(CC[C@H]3C(C)(C)[C@@H](OC(C)=O)CC[C@]23C)[C@@H]1Cc1c(O)cc(C)oc1=O`, the Activity in the experiment with Staphylococcus aureus [16], with Enterococcus faecalis, with Bacillus subtilis [17] and with Staphylococcus aureus [18] was 100% in each case.
Consider `O=C1Nc2ccc(Br)cc2C1(c1c[nH]c2ccccc12)c1c[nH]c2ccccc12`, for which the Activity in the experiment on Pseudomonas aeruginosa [19] stood at 49.32%. For the same compound, in experiment [20], the MBIC was determined as 5 µM.
Regarding `C/C=C/CCCC(C)/C(O)=C1\C(=O)[C@H](C(C)O)N(C)C1=O` (some centres not stated), in the experiment with Candida albicans [21], the Activity is given as 80%.
For the compound `COc1cc(-c2ccccn2)nc(/C=N/O)c1S(C)(=O)=O`, the results for the MBIC in the experiment with Acinetobacter baumannii [22] and in the experiment with Acinetobacter baumannii [23] were 8 µg/mL and 32 µg/mL, respectively.
As for `CCCCCCCCCCCCCCC=O`, in experiment [24], the inhibition was above 50%.
`COC(=O)[C@@]12Oc3ccc(-c4ccc5c(c4O)C(=O)C4=C(O)C[C@H](C)[C@@H](O)[C@]4(C(=O)OC)O5)c(O)c3C(=O)C1=C(O)C[C@H](C)[C@H]2O`: the Activity with Staphylococcus aureus [25] turned out to be 97%.
Regarding `O=Cc1ccc(CO)o1` [AES-103], the Activity in the experiment on Candida albicans [26] came to 86%.
Regarding `NCCc1ccc(O)cc1` [TYRAMINE], the Activity in the experiment with Pseudomonas aeruginosa [11] is reported as 28%.
On to `NC1=N[C@]23CCCN2C(=O)c2cc(Br)c(Br)n2[C@@H]3N1` [DIBROMOPHAKELLIN], for which, in the experiment with Escherichia coli [27], the Activity is reported as 50%.
